Experimental data as given in patent publication US20260144815A1, “BLOOD COAGULATION TIME SHORTENING AGENT FOR BLOOD SPECIMEN DEFICIENT IN COAGULATION FACTOR XII” (SEKISUI MEDICAL CO., LTD., priority 2022, published 2026).

Test system: FXII-deficient specimens
Assay: Test 2: APTT coagulation time measurement of FXII-deficient specimens, zinc chloride basic prescription
Assay type: biochemical, human
Conditions: metal salt used instead of zinc chloride in combination with the polymer
Text: The following specimens were used: • FXII-deficient specimens (specimens derived from FXII-deficient patients, N=3).
The prescription was the same as that in the test 1 except that copper sulfate pentahydrate in the first reagent (R1) was changed to zinc chloride.
In the control, LIPIDURE (R) was not added.
Test reagents 5-1 to 5-3: zinc chloride in R1 of the basic prescription was changed to the metal salt compound shown in Table 5, and LIPIDURE (R)-BL205 was further added. As the control, the test reagent 4-1 was used.
R1 and R2 were prepared by the same procedure as in the test 1, the coagulation time (APTT) was measured, and the variation rate (%) of APTT with the test reagent with respect to the control was determined.

| SMILES | coagulation time of FXII-deficient specimens |
| --- | --- |
| O.O.O.O.[Cl][In]([Cl])[Cl] [indium (III) chloride tetrahydrate] | further shortened |
| O.O.O.O.[Cl][Mn][Cl] [manganese (II) chloride tetrahydrate] | further shortened |
